Test results as given in ChEMBL document CHEMBL1201862, “PubChem BioAssay data set” (2004).
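Grown in 96-well plates, cells were treated for 48 hours with each compound at five concentrations. Insufficient inhibition: endpoint recorded as highest concentration tested. Abbreviation: GI50, concentration required for 50% inhibition of growth.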 The source made the active and inactive calls. Cut-off read from the data, not from the text of the source: active = GI50 up to about 1.1 µM and inactive = higher.

Legend:
Test in all cases: NCI-60 cell line screen, 48 h
RPMI-8226 = test system: RPMI-8226
Hs-578T = test system: Hs-578T
KM12 = test system: KM12
IGROV-1 = test system: IGROV-1
HCT-15 = test system: HCT-15
SF-268 = test system: SF-268
NCI-H522 = test system: NCI-H522
UO-31 = test system: UO-31
OVCAR-4 = test system: OVCAR-4
T47D = test system: T47D
NCI-H460 = test system: NCI-H460
LOX IMVI = test system: LOX IMVI
U-251 = test system: U-251
NCI-H23 = test system: NCI-H23
SR = test system: SR
MDA-MB-231 = test system: MDA-MB-231
BT-549 = test system: BT-549
HT-29 = test system: HT-29
HL-60 = test system: HL-60

CCc1cccc(C(C)C)c1NC(=O)C(=O)C1C(=O)Nc2ccccc2[S+]1[O-] (stereo not drawn)
GI50 (RPMI-8226): > 100 µM (inactive)
GI50 (Hs-578T): > 100 µM (inactive)
GI50 (KM12): > 100 µM (inactive)
GI50 (IGROV-1): 38.9 µM (inactive)
GI50 (HCT-15): > 100 µM
GI50 (SF-268): > 100 µM (inactive)
GI50 (NCI-H522): > 100 µM (inactive)
GI50 (UO-31): > 100 µM (inactive)
GI50 (OVCAR-4): > 100 µM (inactive)
GI50 (T47D): > 100 µM (inactive)
GI50 (NCI-H460): > 100 µM (inactive)
GI50 (LOX IMVI): > 100 µM (inactive)
GI50 (U-251): > 100 µM (inactive)
GI50 (NCI-H23): > 100 µM (inactive)
GI50 (SR): > 100 µM (inactive)
GI50 (MDA-MB-231): > 100 µM (inactive)
GI50 (BT-549): > 100 µM (inactive)
GI50 (HT-29): > 100 µM (inactive)

COc1c(-c2nc3ccc(N4CCN(C)CC4)nc3[nH]2)cc(OC)c2c1nc(CO)n2C
GI50 (RPMI-8226): > 100 µM (inactive)
GI50 (Hs-578T): > 100 µM (inactive)
GI50 (KM12): > 100 µM (inactive)
GI50 (IGROV-1): > 100 µM (inactive)
GI50 (HCT-15): > 100 µM
GI50 (SF-268): > 100 µM (inactive)
GI50 (NCI-H522): > 100 µM (inactive)
GI50 (UO-31): > 100 µM (inactive)
GI50 (OVCAR-4): > 100 µM (inactive)
GI50 (HL-60): 81.7 µM (inactive)
GI50 (T47D): > 100 µM (inactive)
GI50 (NCI-H460): > 100 µM (inactive)
GI50 (LOX IMVI): > 100 µM (inactive)
GI50 (U-251): > 100 µM (inactive)
GI50 (NCI-H23): > 100 µM (inactive)
GI50 (MDA-MB-231): > 100 µM (inactive)
GI50 (BT-549): > 100 µM (inactive)
GI50 (HT-29): > 100 µM (inactive)

CC(C)[Si](Oc1ccc(CC2N(C(=O)c3ccc([N+](=O)[O-])cc3)C(CCc3ccccc3)CC2(C)C=O)cc1)(C(C)C)C(C)C (stereo not drawn)
GI50 (RPMI-8226): > 100 µM (inactive)
GI50 (Hs-578T): 32 µM (inactive)
GI50 (IGROV-1): 7.38 µM (inactive)
GI50 (HCT-15): 5.6 µM
GI50 (SF-268): 19.4 µM (inactive)
GI50 (NCI-H522): > 100 µM (inactive)
GI50 (UO-31): > 100 µM (inactive)
GI50 (OVCAR-4): > 100 µM (inactive)
GI50 (T47D): > 100 µM (inactive)
GI50 (LOX IMVI): > 100 µM (inactive)
GI50 (U-251): 20.5 µM (inactive)
GI50 (NCI-H23): 27.8 µM (inactive)
GI50 (SR): 2.58 µM (inactive)
GI50 (MDA-MB-231): 12.9 µM (inactive)
GI50 (BT-549): 21.3 µM (inactive)

C=Cc1nc(C#N)c(N)o1
GI50 (RPMI-8226): > 100 µM (inactive)
GI50 (Hs-578T): > 100 µM (inactive)
GI50 (KM12): > 100 µM (inactive)
GI50 (IGROV-1): > 100 µM (inactive)
GI50 (HCT-15): > 100 µM
GI50 (SF-268): > 100 µM (inactive)
GI50 (NCI-H522): > 100 µM (inactive)
GI50 (UO-31): > 100 µM (inactive)
GI50 (OVCAR-4): > 100 µM (inactive)
GI50 (HL-60): > 100 µM (inactive)
GI50 (T47D): > 100 µM (inactive)
GI50 (NCI-H460): > 100 µM (inactive)
GI50 (LOX IMVI): > 100 µM (inactive)
GI50 (U-251): > 100 µM (inactive)
GI50 (NCI-H23): > 100 µM (inactive)
GI50 (MDA-MB-231): > 100 µM (inactive)
GI50 (BT-549): > 100 µM (inactive)
GI50 (HT-29): > 100 µM (inactive)

O=C(O)c1cc(O)nc(S)n1
GI50 (RPMI-8226): > 100 µM (inactive)
GI50 (Hs-578T): > 100 µM (inactive)
GI50 (KM12): > 100 µM (inactive)
GI50 (IGROV-1): > 100 µM (inactive)
GI50 (HCT-15): > 100 µM
GI50 (SF-268): > 100 µM (inactive)
GI50 (NCI-H522): > 100 µM (inactive)
GI50 (UO-31): > 100 µM (inactive)
GI50 (OVCAR-4): > 100 µM (inactive)
GI50 (HL-60): > 100 µM (inactive)
GI50 (T47D): > 100 µM (inactive)
GI50 (NCI-H460): > 100 µM (inactive)
GI50 (LOX IMVI): > 100 µM (inactive)
GI50 (U-251): > 100 µM (inactive)
GI50 (NCI-H23): > 100 µM (inactive)
GI50 (MDA-MB-231): > 100 µM (inactive)
GI50 (BT-549): > 100 µM (inactive)
GI50 (HT-29): > 100 µM (inactive)

COc1ccc(N2C(=O)C3c4[nH]c5ccccc5c4C4CCC(C(C)C)CC4C3C2=O)cc1 (stereo not drawn)
GI50 (RPMI-8226): > 100 µM (inactive)
GI50 (Hs-578T): 40.7 µM (inactive)
GI50 (KM12): > 100 µM (inactive)
GI50 (IGROV-1): > 100 µM (inactive)
GI50 (HCT-15): > 100 µM
GI50 (SF-268): > 100 µM (inactive)
GI50 (NCI-H522): > 100 µM (inactive)
GI50 (UO-31): > 100 µM (inactive)
GI50 (OVCAR-4): > 100 µM (inactive)
GI50 (T47D): > 100 µM (inactive)
GI50 (NCI-H460): > 100 µM (inactive)
GI50 (LOX IMVI): > 100 µM (inactive)
GI50 (U-251): 38.8 µM (inactive)
GI50 (NCI-H23): > 100 µM (inactive)
GI50 (SR): 40.7 µM (inactive)
GI50 (MDA-MB-231): > 100 µM (inactive)
GI50 (BT-549): > 100 µM (inactive)
GI50 (HT-29): > 100 µM (inactive)

CC(=O)OC1=c2ccccc2=C(O)C2C1C=NN2C(C)=O (stereo not drawn)
GI50 (RPMI-8226): > 100 µM (inactive)
GI50 (Hs-578T): 88.5 µM (inactive)
GI50 (KM12): > 100 µM (inactive)
GI50 (IGROV-1): 99.3 µM (inactive)
GI50 (HCT-15): > 100 µM
GI50 (SF-268): > 100 µM (inactive)
GI50 (NCI-H522): > 100 µM (inactive)
GI50 (UO-31): > 100 µM (inactive)
GI50 (OVCAR-4): > 100 µM (inactive)
GI50 (HL-60): > 100 µM (inactive)
GI50 (T47D): > 100 µM (inactive)
GI50 (NCI-H460): > 100 µM (inactive)
GI50 (LOX IMVI): > 100 µM (inactive)
GI50 (U-251): > 100 µM (inactive)
GI50 (NCI-H23): > 100 µM (inactive)
GI50 (MDA-MB-231): > 100 µM (inactive)
GI50 (BT-549): > 100 µM (inactive)
GI50 (HT-29): > 100 µM (inactive)

COc1ccc(/N=C2\S/C(=N\C(=N\c3ccccc3)SCc3ccccc3)N(c3ccccc3)\C2=N/c2ccc(OC)cc2)cc1
GI50 (RPMI-8226): > 100 µM (inactive)
GI50 (Hs-578T): > 100 µM (inactive)
GI50 (KM12): > 100 µM (inactive)
GI50 (IGROV-1): > 100 µM (inactive)
GI50 (HCT-15): > 100 µM
GI50 (UO-31): > 100 µM (inactive)
GI50 (HL-60): > 100 µM (inactive)
GI50 (T47D): > 100 µM (inactive)
GI50 (NCI-H23): > 100 µM (inactive)
GI50 (SR): > 100 µM (inactive)
GI50 (MDA-MB-231): > 100 µM (inactive)
GI50 (BT-549): > 100 µM (inactive)
GI50 (HT-29): > 100 µM (inactive)

Cc1c(-c2ccccc2)n[nH]c1NC1(C)C(=O)N(/N=C/c2ccccc2)N=C1c1ccccc1 (stereo not drawn)
GI50 (RPMI-8226): 5.7 µM (inactive)
GI50 (Hs-578T): > 100 µM (inactive)
GI50 (KM12): 38.6 µM (inactive)
GI50 (IGROV-1): > 100 µM (inactive)
GI50 (HCT-15): > 44.5 µM
GI50 (SF-268): > 100 µM (inactive)
GI50 (NCI-H522): > 100 µM (inactive)
GI50 (UO-31): > 100 µM (inactive)
GI50 (OVCAR-4): 31.8 µM (inactive)
GI50 (HL-60): 46.6 µM (inactive)
GI50 (T47D): > 26 µM (inactive)
GI50 (NCI-H460): > 62.5 µM (inactive)
GI50 (LOX IMVI): > 100 µM (inactive)
GI50 (U-251): > 33.6 µM (inactive)
GI50 (NCI-H23): > 100 µM (inactive)
GI50 (MDA-MB-231): > 100 µM (inactive)
GI50 (BT-549): > 100 µM (inactive)
GI50 (HT-29): > 100 µM (inactive)

OCCCNc1[nH]cnc2nncc1-2
GI50 (RPMI-8226): > 100 µM (inactive)
GI50 (Hs-578T): > 100 µM (inactive)
GI50 (KM12): > 100 µM (inactive)
GI50 (IGROV-1): > 100 µM (inactive)
GI50 (HCT-15): > 100 µM
GI50 (SF-268): > 100 µM (inactive)
GI50 (NCI-H522): > 100 µM (inactive)
GI50 (UO-31): > 100 µM (inactive)
GI50 (OVCAR-4): > 100 µM (inactive)
GI50 (HL-60): > 100 µM (inactive)
GI50 (T47D): > 100 µM (inactive)
GI50 (NCI-H460): > 100 µM (inactive)
GI50 (LOX IMVI): > 100 µM (inactive)
GI50 (U-251): > 100 µM (inactive)
GI50 (NCI-H23): > 100 µM (inactive)
GI50 (MDA-MB-231): > 100 µM (inactive)
GI50 (BT-549): > 100 µM (inactive)
GI50 (HT-29): > 100 µM (inactive)

COc1cc(OC)cc(Oc2nc3c(N)cc(C(F)(F)F)cc3nc2-c2ccccc2)c1
GI50 (RPMI-8226): 16.4 µM (inactive)
GI50 (Hs-578T): 80.4 µM (inactive)
GI50 (KM12): 13.8 µM (inactive)
GI50 (IGROV-1): 21.8 µM (inactive)
GI50 (HCT-15): 18.1 µM
GI50 (SF-268): 74.8 µM (inactive)
GI50 (UO-31): > 100 µM (inactive)
GI50 (OVCAR-4): 78.9 µM (inactive)
GI50 (HL-60): 16.6 µM (inactive)
GI50 (T47D): 3.14 µM (inactive)
GI50 (NCI-H460): 30.2 µM (inactive)
GI50 (LOX IMVI): 20.4 µM (inactive)
GI50 (U-251): 44.8 µM (inactive)
GI50 (NCI-H23): 92.7 µM (inactive)
GI50 (SR): 11.1 µM (inactive)
GI50 (MDA-MB-231): 28.9 µM (inactive)
GI50 (BT-549): > 100 µM (inactive)
GI50 (HT-29): 15.9 µM (inactive)

Cc1ccc2c(c1)C=CC1(O2)N(c2ccccc2)C(=S)OC1(C)C (stereo not drawn)
GI50 (RPMI-8226): 22.9 µM (inactive)
GI50 (Hs-578T): 31.9 µM (inactive)
GI50 (KM12): 34.5 µM (inactive)
GI50 (IGROV-1): 10.1 µM (inactive)
GI50 (HCT-15): 46.2 µM
GI50 (SF-268): 89.5 µM (inactive)
GI50 (UO-31): 28.5 µM (inactive)
GI50 (OVCAR-4): 25.8 µM (inactive)
GI50 (HL-60): 5.37 µM (inactive)
GI50 (T47D): 3.86 µM (inactive)
GI50 (NCI-H460): > 100 µM (inactive)
GI50 (LOX IMVI): > 100 µM (inactive)
GI50 (U-251): 83.8 µM (inactive)
GI50 (NCI-H23): 35.4 µM (inactive)
GI50 (SR): 14.5 µM (inactive)
GI50 (MDA-MB-231): > 100 µM (inactive)
GI50 (BT-549): > 100 µM (inactive)
GI50 (HT-29): 41.5 µM (inactive)
